IC50 data for 23 compounds are collected here from patent publication US20100056524A1, “Compound” (priority 2008, published 2010).

Counter-ions that a name gives are not always drawn. Some results are limits rather than exact numbers.

What is called IC50 is the concentration that inhibits the measured activity by half.

The target in the test is T1, TBK1 (Homo sapiens, UniProt Q9UHD2).
T1 construct: All protein kinases were of human origin and encoded full length proteins, unless indicated otherwise; His6; made in house; host or cells: insect Sf21 cells
T1 sequence (Q9UHD2 1-729): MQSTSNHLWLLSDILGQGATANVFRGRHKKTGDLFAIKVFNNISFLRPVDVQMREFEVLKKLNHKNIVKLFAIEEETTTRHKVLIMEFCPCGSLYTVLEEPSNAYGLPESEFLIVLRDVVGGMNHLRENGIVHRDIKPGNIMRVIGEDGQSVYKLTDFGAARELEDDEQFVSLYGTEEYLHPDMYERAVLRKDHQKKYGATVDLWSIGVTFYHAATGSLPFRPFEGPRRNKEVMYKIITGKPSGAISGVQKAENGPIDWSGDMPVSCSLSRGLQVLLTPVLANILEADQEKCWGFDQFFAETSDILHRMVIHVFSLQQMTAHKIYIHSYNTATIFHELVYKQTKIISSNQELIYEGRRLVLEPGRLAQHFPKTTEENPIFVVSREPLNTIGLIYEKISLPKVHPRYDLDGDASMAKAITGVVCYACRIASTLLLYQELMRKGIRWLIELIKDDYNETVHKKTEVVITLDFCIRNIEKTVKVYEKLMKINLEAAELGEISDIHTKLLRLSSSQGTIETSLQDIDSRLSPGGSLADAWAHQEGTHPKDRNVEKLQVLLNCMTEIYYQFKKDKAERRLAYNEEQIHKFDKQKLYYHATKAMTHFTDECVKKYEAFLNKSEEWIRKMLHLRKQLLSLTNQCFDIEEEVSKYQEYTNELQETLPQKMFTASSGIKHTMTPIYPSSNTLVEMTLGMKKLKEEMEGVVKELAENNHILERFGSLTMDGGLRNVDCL
As to the kind of experiment: TBK1 protein kinase assay ([γ-33P]ATP, P81 filterplates). The test is classed as biochemical. The note with it: 50 μM ATP; read-out: Potency (TBK1 IC50 potency score). From the text: All protein kinases were of human origin and encoded full length proteins, unless indicated otherwise. They were either expressed as glutathione S-transferase (GST) fusion proteins in Escherichia Coli or as hexahistidine (His6)-tagged proteins in insect Sf21 cells. GST fusion proteins were purified by affinity chromatography on glutathione-Sepharose, and His6-tagged proteins on nickel/nitriloacetate-agarose. The procedures for expressing some of the protein kinases used herein have been detailed previously.^8,9 The following sections outline the DNA vectors synthesised and the procedures used to express and purifying protein kinases that have not been reported previously.
The following kinases were expressed in Sf21 cells: Aurora B and Aurora C, extra-cellular signal-regulated kinase 8 (ERK8), microtubule affinity regulating kinase 3 (MARK3), protein kinase Bα[118-480][S473D], protein kinase Bβ (PKBβ[120-481][S474D], 3-phosphoinositide-dependent protein kinase-1 [52-556]
Assays were performed for 30 min using Multidrop Micro reagent dispensers (Thermo Electron Corporation, Waltham, Mass. 02454, USA) in a 96-well format. The concentration of magnesium acetate in the assays was 10 mM and the [γ-33P] ATP (800 cpm/pmol) was used at 5, 20 or 50 μM as indicated, in order to be at or below the Km for ATP for each enzyme. Protein kinases assayed at 5 μM ATP were: —ERK1, ERK8, PKBα, MARK3, Aurora C. Protein kinases assayed at 20 μM ATP were: —JNK1, PDK1, CHK1, CHK2, CDK2 and Aurora B. Protein kinases assayed at 50 μM ATP were: —MNK2, IKKepsilon and TBK1.
The assays were initiated with MgATP, stopped by addition of 5 μl of 0.5 M orthophosphoric acid and spotted on to P81 filterplates using a unifilter harvester (PerkinElmer, Boston, Mass. 02118, USA). The IC50 values of inhibitors were determined after carrying out assays at 10 different concentrations of each compound.
ERK1 and ERK8 were both assayed against myelin basic protein (MBP, 0.33 mg/ml). MARK3 was assayed against the peptide […] (300 μM), MNK2 against the eIF4E protein (0.5 mg/ml). PKBβ was assayed against the peptide […] (30 μM). TBK1 were assayed against ([…]) (300 μM). The substrates used for other protein kinases were described previously.^8,9
Unless stated otherwise, enzymes were diluted in 50 mM Tris/HCl pH 7.5, 0.1 mM EGTA, 1 mg/ml BSA, 0.1% (v/v) 2-mercaptoethanol and assayed in 50 mM Tris/HCl pH 7.5, 0.1 mM EGTA, 0.1% (v/v) 2-mercaptoethanol.
Regarding `O=C(O)c1cccc(Nc2ncc(C3CC3)c(NCCCNC(=O)c3cccs3)n2)c1` [Example 34, 3-(5-Cyclopropyl-4-{3-[(thiophene-2-carbonyl)-amino]-propylamino}-pyrimidin-2-ylamino)-benzoic acid trifluoroacetic acid salt], the IC50 was 0.1 to 1 µM.

As to `O=C(NCCCNc1nc(Nc2cccc(OC(F)(F)F)c2)ncc1C1CC1)c1cccs1` [Example 35, Thiophene-2-carboxylic acid {3-[5-cyclopropyl-2-(3-trifluoromethoxy-phenylamino)-pyrimidin-4-ylamino]-propyl}-amide trifluoroacetic acid salt], the IC50 is 0.1 to 1 µM.

`NC(=O)c1cccc(Nc2ncc(C3CC3)c(NCCCNC(=O)c3cccs3)n2)c1` [Example 36, Thiophene-2-carboxylic acid {3-[2-(3-carbamoyl-phenylamino)-5-cyclopropyl-pyrimidin-4-ylamino]-propyl}-amide trifluoroacetic acid salt]: the IC50 lay within 0.1 to 1 µM.

Turning to `O=C(NCCCNc1nc(Nc2ccc3ncsc3c2)ncc1C1CC1)c1cccs1` [Example 37, Thiophene-2-carboxylic acid {3-[2-(benzothiazol-6-ylamino)-5-cyclopropyl-pyrimidin-4-ylamino]-propyl}-amide. Hydrochloride salt], the IC50 is below 0.1 µM.

On to `O=C1CCCN1CCCNc1nc(Nc2cccc(F)c2)ncc1C1CC1` [Example 38, 1-{3-[5-Cyclopropyl-2-(3-fluoro-phenylamino)-pyrimidin-4-ylamino]-propyl}-pyrrolidin-2-one], for which the IC50 was 0.1 to 1 µM.

For `CC(=O)Nc1cccc(Nc2ncc(C3CC3)c(NCCCN3CCCC3=O)n2)c1` [Example 39, N-(3-{5-Cyclopropyl-4-[3-(2-oxo-pyrrolidin-1-yl)-propylamino]-pyrimidin-2-ylamino}-phenyl)-acetamide trifluoroacetate salt], the IC50 is 0.1 to 1 µM.

Regarding `O=C(NCCCNc1nc(Nc2ccc3ncsc3c2)ncc1C1CC1)C1CCC1` [Example 40, Cyclobutanecarboxylic acid {3-[2-(benzothiazol-6-ylamino)-5-cyclopropyl-pyrimidin-4-ylamino]-propyl}-amide. Hydrochloride salt], the IC50 was below 0.1 µM.

In the case of `O=C(NCCCNc1nc(Nc2cccc(N3CCOCC3)c2)ncc1C1CC1)C1CCC1` [Example 41, Cyclobutanecarboxylic acid {3-[5-cyclopropyl-2-(3-morpholin-4-yl-phenylamino)-pyrimidin-4-ylamino]-propyl}-amide], the IC50 was below 0.1 µM.

For the compound `O=C(NCCCNc1nc(Nc2cccc(Cn3ccnc3)c2)ncc1C1CC1)C1CCC1` [Example 42, Cyclobutanecarboxylic acid {3-[5-cyclopropyl-2-(3-imidazol-1-ylmethyl-phenylamino)-pyrimidin-4-ylamino]-propyl}-amide], the IC50 was below 0.1 µM.

For the compound `CN1CCN(c2ccc(Nc3ncc(C4CC4)c(NCCCNC(=O)C4CCC4)n3)cn2)CC1` [Example 43, Cyclobutanecarboxylic acid (3-{5-cyclopropyl-2-[6-(4-methyl-piperazin-1-yl)-pyridin-3-ylamino]-pyrimidin-4-ylamino}-propyl)-amide], the concentration for half-maximal inhibition (IC50) was below 0.1 µM.

As for `CN(C)c1cccc(Nc2ncc(C3CC3)c(NCCCNC(=O)c3cccs3)n2)c1` [Example 44, Thiophene-2-carboxylic acid {3-[5-cyclopropyl-2-(3-dimethylamino-phenylamino)-pyrimidin-4-ylamino]-propyl}-amide trifluoroacetic acid salt], the IC50 fell in the range of 0.1 to 1 µM.

Turning to `CN1CCN(C(=O)c2cccc(Nc3ncc(C4CC4)c(NCCCNC(=O)c4cccs4)n3)c2)CC1` [Example 45, Thiophene-2-carboxylic acid (3-{5-cyclopropyl-2-[3-(4-methyl-piperazine-1-carbonyl)-phenylamino]-pyrimidin-4-ylamino}-propyl)-amide], the IC50 lay within 0.1 to 1 µM.

For the compound `O=C(NCCCNc1nc(Nc2cccc(N3CCOCC3)c2)ncc1C1CC1)c1cccs1` [Example 46, Thiophene-2-carboxylic acid {3-[5-cyclopropyl-2-(3-morpholin-4-yl-phenylamino)-pyrimidin-4-ylamino]-propyl}-amide trifluoroacetic acid salt], the IC50 is 0.1 to 1 µM.

With `O=C(NCCCNc1nc(Nc2cccc(N3CCCC3=O)c2)ncc1C1CC1)C1CCC1` [Example 48, Cyclobutanecarboxylic acid (3-{5-cyclopropyl-2-[3-(2-oxo-pyrrolidin-1-yl)-phenylamino]-pyrimidin-4-ylamino}-propyl)-amide], the IC50 was below 0.1 µM.

With `O=C(NCCCNc1nc(Nc2cccc(NC(=O)N3CCCC3)c2)ncc1C1CC1)c1cccs1` [Example 49, Pyrrolidine-1-carboxylic acid [3-(5-cyclopropyl-4-{3-[(thiophene-2-carbonyl)-amino]-propylamino}-pyrimidin-2-ylamino)-phenyl]-amide], the IC50 is below 0.1 µM.

With `CC(=O)Nc1cccc(Nc2ncc(C3CC3)c(NCCCNC(=O)c3cccs3)n2)c1` [Example 51, Thiophene-2-carboxylic acid {3-[2-(3-acetylamino-phenylamino)-5-cyclopropyl-pyrimidin-4-ylamino]-propyl}-amide], the IC50 is below 0.1 µM.

Turning to `O=C(NCCCNc1nc(Nc2ccccc2F)ncc1C1CC1)c1cccs1` [Example 52, Thiophene-2-carboxylic acid {3-[5-cyclopropyl-2-(2-fluoro-phenylamino)-pyrimidin-4-ylamino]-propyl}-amide], the IC50 fell in the range of 0.1 to 1 µM.

`O=C(NCCCNc1nc(Nc2ccc3cnccc3c2)ncc1C1CC1)c1cccs1` [Example 53, Thiophene-2-carboxylic acid {3-[5-cyclopropyl-2-(isoquinolin-6-ylamino)-pyrimidin-4-ylamino]-propyl}-amide]: the IC50 is 1 to 10 µM.

Consider `O=C(NCCCNc1nc(Nc2ccc(N3CCOCC3)nc2)ncc1C1CC1)c1cccs1` [Example 54, Thiophene-2-carboxylic acid {3-[5-cyclopropyl-2-(6-morpholin-4-yl-pyridin-3-ylamino)-pyrimidin-4-ylamino]-propyl}-amide], for which the IC50 is below 0.1 µM.

For the compound `O=C(NCCCNc1nc(Nc2cccc(Cl)c2)ncc1C1CC1)c1cccs1` [Example 55, Thiophene-2-carboxylic acid {3-[2-(3-chloro-phenylamino)-5-cyclopropyl-pyrimidin-4-ylamino]-propyl}-amide], the IC50 fell in the range of 0.1 to 1 µM.

In the case of `O=C(NCCCNc1nc(Nc2ccc3nccnc3c2)ncc1C1CC1)c1cccs1` [Example 56, Thiophene-2-carboxylic acid {3-[5-cyclopropyl-2-(quinoxalin-6-ylamino)-pyrimidin-4-ylamino]-propyl}-amide], the half-inhibitory concentration (IC50) was 0.1 to 1 µM.

For the compound `O=C(NCCCNc1nc(Nc2ccccc2)ncc1C1CC1)c1cccs1` [Example 57, Thiophene-2-carboxylic acid [3-(5-cyclopropyl-2-phenylamino-pyrimidin-4-ylamino)-propyl]-amide], the 50% inhibitory concentration (IC50) was 0.1 to 1 µM.

With `O=C(NCCCNc1nc(Nc2ccc(F)cc2)ncc1C1CC1)c1cccs1` [Example 58, Thiophene-2-carboxylic acid {3-[5-cyclopropyl-2-(4-fluoro-phenylamino)-pyrimidin-4-ylamino]-propyl}-amide], the half-inhibitory concentration (IC50) lay in the range of 0.1 to 1 µM.
